Data on one molecule can be found in paper PMC4853715, “Design, Synthesis and Antitumor Activity of Novel link-bridge and B-Ring Modified Combretastatin A-4 (CA-4) Analogues as Potent Antitubulin Agents” (Scientific Reports, 2016).

The test system of series [1] is A549 cells. Description: Detection of intracellular ROS (DCFH-DA flow cytometry). It counts as cell-based, human. The settings on record: A549, versus control cells and positive control. As to the method: Intracellular ROS production was measured by use of active oxygen species assay kit (K0111, Beyotime, China). […] After 30 min of incubation in the darkness, cells were washed with DMEM for three times, and then fluorescent intensity was measured by the flow cytometer with excitation and emission wavelengths of 488 and 525 nm, respectively.
For orientation: Flow cytometry measures light scatter and fluorescence of single cells or particles in a stream.

In series [2] the test system is 293T, Macrophage, and L02. Description: MTT assay on non-cancer cell lines. The class given is cell-based, human.
The next series concerns Bovine brain tubulin. Description: Effects on tubulin polymerization (turbidimetric assembly). The settings on record: 10 μM tubulin, 30 °C, 20 min incubation; read-out: Tubulin inhibition IC50. It counts as biochemical. The method, then: Bovine brain tubulin was purified as described previously. To evaluate the effect of the compounds on tubulin assembly in vitro, compounds of varying concentrations were preincubated with 10 μM tubulin in glutamate buffer at 30 °C and then cooled to 0 °C. After addition of GTP, the mixtures were transferred to 0 °C cuvettes in a recording BioTek Synergy 4 multifunction microplate spectrophotometer and warmed up to 30 °C and the assembly of tubulin was observed turbidimetrically (TU660, USA).

Series [3] has as its system A549 cells. Description: Apoptosis assay, Annexin V-FITC/PI flow cytometry. The settings on record: A549, 0.8 μM. It counts as cell-based, human. The method, then: The percentages of apoptotic cells were estimated by staining with Annexin-V-FITC and with a PI Apoptosis Detection Kit (KGA105, Keygen biotech, China) according to the manufacturer’s instructions with some modifications. In brief, collected cells were washed once with PBS and subsequently washed once with binding buffer, and then stained with Annexin V-FITC and propidium iodide (PI) in the binding buffer for 20 min at room temperature in the dark. Apoptotic cells were quantified using a […] plotting at least 10,000 events per sample. To quantify the data, the frequencies in all quadrants were analyzed using flowjo 7.6.1 software. Both early apoptotic (Annexin V-positive, PI-negative) and late apoptotic (double positive of Annexin V and PI) cells were detected.

The next series relates to A549 xenograft tumor. Kind of series: In vivo anti-tumor activity, A549 xenograft. Also on record: species or system BALB/c nude mice. The settings on record: for average weight of the excised tumors: control group 1.802 g; for tumor growth reduction versus vehicle at end of observation: intraperitoneal, every other day. The method, then: Mice were subcutaneously inoculated with injections of 5.0 × 10^6 cells/nude mice. After 12–14 days, tumor sizes were determined using micrometer calipers, and then nude mice with similar tumor volume (~100 mm^3, eliminate mice with tumors that are too large or too small) were randomly divided them into four groups (with six nude mice/group). […] Both drugs, as well as the vehicle control, were administered every other day for the entire period of observation.
Male BALB/c nude mice, five weeks old and weighing 18–22 g, were supplied by Shanghai Laboratory Animal Limited Company. The mice were raised in air-conditioned rooms under controlled lighting (12 h light-dark cycle at 24 °C) and were fed with standard laboratory food and water ad libitum. Before injection into the mice, the A549 cells were harvested by trypsinization and washed three times with cold serum-free medium and then injected in a total volume of 0.1 mL using a 1 mL latex-free syringe (BD) within 30 min of harvest. Mice were inoculated subcutaneously with A549 cells (5.0 × 10^6) on their shoulders. […] The control group received 0.9% normal saline. Tumor size was measured once every 2 days in two per-pendicular dimensions with Vernier calipers and converted to tumor volume (TV) using the formula: (ab^2)/2, where a and b refer to the longer and shorter dimensions, respectively. The body weight of the animals was measured twice a week to assess toxicity of the treatments at the same time as the tumor dimension measurement and the mortality was monitored daily. After the treatments for eight weeks, the animals were euthanized by cervical dislocation. This study conformed to the Guide for the Care and Use of Laboratory Animals as published by the US National Institutes of Health and was approved by the Institutional Ethics Review Board of Nanjing University.

The subject of series [4] is HepG2, Hela, MCF-7, A549, HT-29 and SSC-4 cell lines. Description: MTT assay, panel of six cancer cell lines. The class given is cell-based. Particulars: Homo sapiens; range over six cell lines; read-out: IC50 values against a panel of cancer cell lines. As to the method:
The in vitro anticancer activities of the prepared compounds against HepG2, Hela, MCF-7, A549, HT-29 and SSC-4 cell lines were evaluated as described in the literature. Target tumor cells were grown to log phase in DMEM medium supplemented with 10% fetal bovine serum. After reaching a dilution of 1 × 10^5 cells Ml^−1 with the medium, 100 μL of the obtained cell suspension was added to each well of 96-well culture plates. Subsequently, incubation was performed at 37 °C in 5% CO2 atmosphere for 12 h before the cytotoxicity assessment. Tested samples at preset concentrations were added to 6 wells with CA-4 being employed as a positive reference. After 48 h exposure period, 25 μL of PBS containing 2.5 mg mL^−1 of MTT (Sigma, USA) was added to each well. After 4 h, the medium was replaced by 150 μL DMSO to dissolve the purple formazan crystals produced. The absorbance at 570 nm of each well was measured with Synergy™ 2 Multi-Mode Microplate Reader. Cell viability (%) was calculated using the following equation: cell viability (%) = (Atreatment/Acontrol) × 100%. The data represented the mean of three independent experiments in triplicate and were expressed as means ± SD.

Series [5] has as its system interphase microtubules of A549 cells. Kind of series: Confocal microscopy assay of microtubule morphology. It counts as cell-based, human. The settings on record: A549, 1.0 μM, 48 h. As to the method: After incubating for 48 h, A549 cells were washed with PBS for three times and fixed with 4% paraformaldehyde for 20 min, permeabilized with cold methanol for another 10 min. After that, the cells were blocked with 5% BSA for 1 h. Subsequently, the cells were washed with PBS, and incubated with anti-tubulin antibody in 3% BSA (1:200 Cytoskeleton, Inc.) overnight at 4 °C. After being washed with PBS for three times, each cover slip was added 200 μL of Cy3-labeled goat anti-mouse IgG (H + L) in 3% BSA (1:500, Cytoskeleton, Inc.) and incubated for 1 h at room temperature. At last, A549 cells was stained with 200 μL of DAPI for 5 min and observed under an confocal microscope (Olympus, USA).

On to `COc1cc(/C=N/NC(=O)c2cn(Cc3ccccc3)c3ccccc23)cc(OC)c1OC` [Compound 7], for which the “intracellular ROS production” value in the series with A549 cells [1] is given as “induced the production of significant amounts of ROS”. Also, the “cytotoxic effects on three normal human cells (in words)” value in series [2] is “minimal”. The values for the IC50 (in the series with Bovine brain tubulin; in series [4]) were 4.46 µM and 0.08 to 35.6 µM, respectively. For the same molecule, the “early apoptosis (Q3)” value with A549 cells [3] (12 h) worked out at 1.84%. Further, the “total percentage of early and late apoptotic cells” value in the series on A549 cells [3] (24 h) stood at 33.05%; in the series on A549 cells [3] (48 h) it was 77.2%. The “average weight of the excised tumors” value in the series with A549 xenograft tumor (20 mg/kg group) is on record as 0.951 g; in the series on A549 xenograft tumor (30 mg/kg group), 0.553 g. Besides, the “tumor growth reduction versus vehicle at end of observation” value with A549 xenograft tumor (20 mg/kg) turned out to be 47%; in the series on A549 xenograft tumor (30 mg/kg), 70%. Also, in series [5], the microtubule morphology result was “disorganized interphase microtubules”.
